Consider 5 molecules from ChEMBL document CHEMBL2073956, “ATP-dependent transport of bile salts by rat multidrug resistance-associated protein 3 (Mrp3)” (J Biol Chem, 2000).

Common to all, as to type: functional, cell membranes, Membrane vesicle
In data set [1] the target is T1, ATP-binding cassette sub-family C member 3 (Rattus norvegicus, UniProt O88563). Nature of the data set: (§1) TP_TRANSPORTER: uptake in membrane vesicles isolated from Mrp3-expressing LLC-PK1 cells. The following applies: pig, llc-pk1.
The target in data set [2] is T1, ATP-binding cassette sub-family C member 3. Nature of the data set: (§2) TP_TRANSPORTER: uptake in membrane vesicles from LLC-PK1 cells. The following applies: pig.
Data set [3] has as its target T2, ATP-binding cassette sub-family C member 3 (MRP3) (Rattus norvegicus, UniProt O88563). Description: TP_TRANSPORTER: inhibition of E217betaG uptake (E217betaG: 0.055 uM, TCDC-S: 50 uM) in membrane vesicles from LLC-PK1 cells. Also noted: scale not given: the % may be the effect or the level left. The following applies: pig, probe E217betaG, read-out: Activity.
Data set [4] has as its target T2, ATP-binding cassette sub-family C member 3 (MRP3). Description: TP_TRANSPORTER: inhibition of Taurocholate uptake (Taurochorate: 1.2 uM, TCDC-S: 50 uM) in membrane vesicles from LLC-PK1 cells. Also noted: scale not given: the % may be the effect or the level left. The settings on record: pig, probe taurocholate, read-out: Activity.
Data set [5] deals with T3, Mrp3 (ATP-binding cassette sub-family C member 3) (Rattus norvegicus, UniProt O88563). Description: TP_TRANSPORTER: inhibition of Taurocholate uptake (TCDC-S: 50 uM) in membrane vesicles isolated from Mrp3-expressing LLC-PK1 cells. The arrangement: scale not given: the % may be the effect or the level left. The settings on record: pig, probe taurocholate, read-out: Activity.

Data set [6] addresses T1, ATP-binding cassette sub-family C member 3. Description: TP_TRANSPORTER: inhibition of E217betaG uptake (E217betaG: 0.055 uM, TCDC-S: 50 uM) in membrane vesicles isolated from Mrp3-expressing LLC-PK1 cells. The arrangement: scale not given: the % may be the effect or the level left. The settings on record: pig, llc-pk1, 50 µM.
The target is the same in data set [7]. Nature of the data set: TP_TRANSPORTER: inhibition of Taurocholate uptake (Taurochorate: 1.2 uM, GC: 50 uM) in membrane vesicles isolated from Mrp3-expressing LLC-PK1 cells. The arrangement: scale not given: the % may be the effect or the level left. The settings on record: pig, llc-pk1, 50 µM.
Data set [8] concerns the target T2, ATP-binding cassette sub-family C member 3 (MRP3). Nature of the data set: TP_TRANSPORTER: inhibition of Taurocholate uptake (Taurochorate: 1.2 uM, CA: 500 uM) in membrane vesicles from LLC-PK1 cells. The settings on record: pig, probe taurocholate, read-out: Activity. The arrangement: scale not given: the % may be the effect or the level left.
Data set [9] addresses T3, Mrp3 (ATP-binding cassette sub-family C member 3). Description: TP_TRANSPORTER: inhibition of E217betaG uptake (E217betaG: 0.055 uM, GC: 200 uM) in membrane vesicles isolated from Mrp3-expressing LLC-PK1 cells. Also noted: scale not given: the % may be the effect or the level left. The settings on record: pig, probe E217betaG, read-out: Activity.
Data set [10] addresses T2, ATP-binding cassette sub-family C member 3 (MRP3). Nature of the data set: TP_TRANSPORTER: inhibition of E217betaG uptake (E217betaG: 0.055 uM, GC: 200 uM) in membrane vesicles from LLC-PK1 cells. The following applies: pig, probe E217betaG, read-out: Activity. Also noted: scale not given: the % may be the effect or the level left.
Data set [11] concerns the target T3, Mrp3 (ATP-binding cassette sub-family C member 3). Described as §1. The following applies: pig, membrane vesicles from Mrp3-expressing LLC-PK1 cells.
The target is the same in data set [12]. Description: TP_TRANSPORTER: inhibition of Taurocholate uptake (Taurochorate: 1.2 uM, TLCAS: 20 uM) in membrane vesicles isolated from Mrp3-expressing LLC-PK1 cells. The settings on record: pig, probe taurocholate, read-out: Activity. Also noted: scale not given: the % may be the effect or the level left.
Data set [13] deals with T2, ATP-binding cassette sub-family C member 3 (MRP3). Nature of the data set: TP_TRANSPORTER: inhibition of E217betaG uptake (E217betaG: 0.055 uM, TLC-S: 20 uM) in membrane vesicles from LLC-PK1 cells. The following applies: pig, probe E217betaG, read-out: Activity. Also noted: scale not given: the % may be the effect or the level left.
Data set [14] concerns the target T3, Mrp3 (ATP-binding cassette sub-family C member 3). Nature of the data set: TP_TRANSPORTER: inhibition of Taurocholate uptake (Taurochorate: 1.2 uM, E217betaG: 200 uM) in membrane vesicles isolated from Mrp3-expressing LLC-PK1 cells. The arrangement: scale not given: the % may be the effect or the level left. The following applies: pig, probe taurocholate, read-out: Activity.

For data set [15], the target named is T2, ATP-binding cassette sub-family C member 3 (MRP3). Description: TP_TRANSPORTER: inhibition of Taurocholate uptake (Taurochorate: 1.2 uM, E217betaG: 75 uM) in membrane vesicles from LLC-PK1 cells. The following applies: pig, probe taurocholate, read-out: Activity. Also noted: scale not given: the % may be the effect or the level left.
Substrate in data set [16]: [H][C@]12CC[C@]3([H])[C@]([H])(CC[C@]4(C)C([C@H](C)CCC(=O)NCCS(=O)(=O)O)CC[C@@]34[H])[C@@]1(C)CC[C@@H](OS(=O)(=O)O)C2
Described as §2.

Where a name gives a salt, the structure may show the parent alone.

Regarding `C[C@H](CCC(=O)NCCS(=O)(=O)O)C1CC[C@H]2[C@@H]3[C@H](O)C[C@@H]4C[C@H](OS(=O)(=O)O)CC[C@]4(C)[C@H]3CC[C@]12C` (stereo partly drawn) [TAUROCHENODEOXYCHOLATE SULFATE], the results for the Activity result in data set [1], in [2] and in [6] were “substrate [+]”, “substrate [+]” and 26.2%, respectively. The activity at 50 µM in data set [3] amounted to 26.2%; in data set [4], 27.8%; in data set [5], 27.8%.
`C[C@H](CCC(=O)NCC(=O)O)[C@H]1CC[C@H]2[C@@H]3[C@H](O)C[C@@H]4C[C@H](O)CC[C@]4(C)[C@H]3C[C@H](O)[C@]12C` [GLYCOCHOLIC ACID]: the Activity entry in [1] was “substrate [+]”; in [2], “substrate [+]”; in data set [7], 16%. The activity at 500 µM in [8] was 0%. Further, the activity at 200 µM in [9] and in data set [10] was 13.9% each time.
Consider `C[C@H](CCC(=O)NCCS(=O)(=O)O)C1CC[C@H]2[C@@H]3CC[C@@H]4C[C@H](OS(=O)(=O)O)CC[C@]4(C)[C@H]3CC[C@]12C` (stereo partly drawn), for which the Km in [11] came out at 3.06 µM. Besides, the activity at 20 µM was 12.2% in data set [12] and 15.5% in data set [13].
Consider `C[C@]12CC[C@@H]3c4ccc(O)cc4CC[C@H]3[C@@H]1CC[C@@H]2O[C@@H]1O[C@H](C(=O)O)[C@@H](O)[C@H](O)[C@H]1O` [ESTRADIOL 17B GLUCURONIDE], for which the activity at 200 µM in data set [14] came out at 78.4%. In addition, the activity at 75 µM in [15] was found to be 78.4%.

B1: ATP-binding cassette sub-family C member 3 (Rattus norvegicus) (protein)
chain: MDRLCGSGELGSKFWDSNLTVYTNTPDLTPCFQNSLLAWVPCIYLWAALPCYLFYLRHHRLGYIVLSCLSRLKTALGVLLWCISWVDLFYSFHGLVHGSSPAPVFFITPLLVGITMLLATLLIQYERLRGVRSSGVLIIFWLLCVICAIIPFRSKILLALAEGKILDPFRFTTFYIYFALVLCAFILSCFQEKPPLFSPENLDTNPCPEASAGFFSRLSFWWFTKLAILGYRRPLEDSDLWSLSEEDCSHKVVQRLLEAWQKQQTQASGPQTAALEPKIAGEDEVLLKARPKTKKPSFLRALVRTFTSSLLMGACFKLIQDLSPSSTHSCSASSSGLFRPHGPYWWGFLLAGLMFVSSTMQTLILHQHYHCIFVMALRIRTAIIGVIYRKALTITNSVKREYTVGEMVNLMSVDAQRFMDVSPFINLLWSAPLQVILAIYFLWQILGPSALAGVAVIVLLIPLNGAVSMKMKTYQVQQMKFKDSRIKLMSEILNGIKVLKLYAWEPTFLEQVEGIRQGELQLLRKGAYLQAISTFIWVCTPFMVTLITLGVYVCVDKNNVLDAEKAFVSLSLFNILKIPLNLLPQLISGMTQTSVSLKRIQDFLNQDELDPQCVERKTISPGRAITIHNGTFSWSKDLPPTLHSINIQIPKGALVAVVGPVGCGKSSLVSALLGEMEKLEGAVSVKGSVAYVPQQAWIQNCTLQENVLFGQPMNPKRYQQALETCALLADLDVLPGGDQTEIGEKGINLSGGQRQRVSLARAVYSDANIFLLDDPLSAVDSHVAKHIFDQVIGPEGVLAGKTRVLVTHGISFLPQTDFIIVLADGQITEMGHYSELLQHDGSFANFLRNYAPDENQEANEGVLQHANEEVLLLEDTLSTHTDLTDTEPAIYEVRKQFMREMSSLSSEGEGQNRPVLKRYTSSLEKEVPATQTKETGALIKEEIAETGNVKLSVYWDYAKSVGLCTTLFICLLYAGQNAVAIGANVWLSAWTNDVEEHGQQNNTSVRLGVYATLGILQGLLVMLSAFTMVVGAIQAARLLHTALLHNQIRAPQSFFDTTPSGRILNRFSKDIYVIHEVLAPTILMLFNSFYTSISTIVVIVASTPLFCVVVLPLAVFYGFVQRFYVATSRQLKRLESVSRSPIFSHFSETVTGTSVIRAYGRVQDFKVLSDAKVDSNQKTTYPYIASNRWLGVHVEFVGNCVVLFSALFAVIGRNSLNPGLVGLSVSYALQVTLSLNWMIRTLSDLESNIIAVERVKEYSKTETEAPWVLESNRAPEGWPRSGVVEFRNYSVRYRPGLELVLKNLTLHVQGGEKVGIVGRTGAGKSSMTLCLFRILEAAEGEIFIDGLNVAHIGLHDLRSQLTIIPQDPILFSGTLRMNLDPFGRYSDEDIWRTLELSHLSAFVSSQPTGLDFQCSEGGDNLSVGQRQLVCLARALLRKSRVLVLDEATAAIDLETDDLIQGTIRTQFEDCTVLTIAHRLNTIMDYNRVLVLDKGVVAEFDSPVNLIAAGGIFYGMAKDAGLA
With B1, in [16], the Km was 3.06 µM.

Broadly, the Km is the concentration of substrate that gives half-maximal velocity.
